Like-named read-outs stand apart in the source and are kept apart here.
Experiments:
[1] = Absorbance maximum and extinction coefficient; format: physicochemical; conditions: for ε (extinction coefficient): pH 7.2, at 480 nm
Experimental: First, the extinction coefficient of compounds 1-9 and 14 was determined. Stock solutions (5×10^-3 M) of each dye were made by dissolving the dye in two equivalents of 0.1 N NaOH and making up the volume with carbonate/bicarbonate buffer (0.16, 0.34 M, pH 9.5). The solution was diluted ([…]) in additional buffer (final pH 9.5-10) and the absorbance spectrum measured. A stock solution (1.2×10^-3 M) of Vita Blue was prepared in DMSO, diluted into citrate buffer (0.1 M, pH 5 2) to give a final concentration of 1.6×10^-5 M and the absorbance spectrum measured. A stock solution (8.2×10^-3 M) of VBDB was prepared in DMSO and diluted into pyrophosphate buffer (0.1 M, pH 7.2) to give a final concentration of 8.1×10^-5 M and the absorbance spectrum measured on a Beckman model DU-6UV visible spectrophotometer.
(§1) Finally, the spectral characteristics of compounds 1-9 was determined. The extinction coefficients and quantum yields or compounds 1-9 were determined at pH 9.5. The extinction coefficient and quantum yield of monoprotonated Vita Blue was also determined at pH 5.2. The extinction coefficient and the quantum yield of VBDB were determined at pH 7.2.

[2] = Fluorescence emission maximum and quantum yield; format: physicochemical
Experimental: Second, quantum yields of compounds 1-9 and 14 were measured. Solutions (1×10^-6 M) of compounds 1-9 were prepared in carbonate/ bicarbonate buffer (pH 9.5). Fluorescence emission spectra were measured on a Perkin-Elmer MPF-2A fluorescence spectrophotometer in 3-mL disposable plastic cuvettes. The excitation wavelength was set 30 nm to the red of the maximum excitation wavelength and the emission spectra measured. The area under the emission spectrum was measured (F). The quantum yield (.PHI.) was determined using the following equation, F-kIo .PHI.εcb, where F is the fluorescence, k is a fluorimeter constant, Io is the light intensity at the exciting wavelength, ε is the extinction coefficient at the exciting wavelength, c is the concentration of the dye, and b is the pathlength of the cuvette. The value of k was determined for three different emission wavelength regions by using literature values of .PHI. and measuring the fluorescence of fluorescein (470-670 nm, .PHI.=0.92), eosin (500-700 nm, .PHI.=0.19) and allophycocyanin (Applied BioSystems, 600-800 nm, .PHI.=0.68). The value of Io was determined from a table that was generated by scanning the range of exciting wavelengths on the fluorescence spectrophotometer with the emission monochrometer open; a piece of white paper was placed in the sample holder to reflect the exciting light. The concentration of the dyes were 0.6-1.0 uM; this value in each case was below the concentration ([…]) required in order for the equation to be valid.
as §1

[3] = molecular target: T1, pig liver esterase (E.C. 3.1.1.1) (Sus scrofa, UniProt Q29550); test: Enzymatic hydrolysis by esterase (Km, Lineweaver-Burk); format: biochemical
T1 sequence (Q29550 19-566): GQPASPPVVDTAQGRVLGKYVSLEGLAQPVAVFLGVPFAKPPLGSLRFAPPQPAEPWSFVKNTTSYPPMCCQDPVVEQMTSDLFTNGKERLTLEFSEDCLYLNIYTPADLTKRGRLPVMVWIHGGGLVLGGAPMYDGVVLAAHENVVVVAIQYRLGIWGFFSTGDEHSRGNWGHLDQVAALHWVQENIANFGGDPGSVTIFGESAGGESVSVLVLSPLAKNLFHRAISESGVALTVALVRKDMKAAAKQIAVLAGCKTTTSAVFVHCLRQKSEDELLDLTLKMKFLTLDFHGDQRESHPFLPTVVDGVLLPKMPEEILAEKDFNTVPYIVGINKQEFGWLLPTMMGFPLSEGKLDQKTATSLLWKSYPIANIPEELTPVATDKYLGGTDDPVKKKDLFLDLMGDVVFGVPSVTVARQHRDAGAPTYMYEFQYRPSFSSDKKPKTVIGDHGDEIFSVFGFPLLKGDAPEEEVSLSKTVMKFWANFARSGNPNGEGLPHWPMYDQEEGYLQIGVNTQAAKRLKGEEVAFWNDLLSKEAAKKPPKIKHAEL

[4] = Staining of lysed whole blood, fluorescence by flow cytometry; format: cell-based, human; conditions: human, white blood cells
Experimental: (§2) After characterizing the various xanthene dyes prepared in accordance with this invention, one of the dyes (VBDB) was used to stain cells. The ability of VBDB to stain cells was compared with BCECF-AM, a membrane permeable esterase substrate (Molecular Probes) and fluorescein diacetate (FDA). […] After incubation, the tube was centrifuged. This procedure specifically lyses red blood cells leaving the white cells intact and viable. The supernatant was removed and the white blood cells which remained were washed twice and resuspended in blood cell diluent (1 mL, Diagnostic Technology, Inc.). The cell concentration and the percentage of dead cells were ascertained by counting the cells manually using a fluorescent microscope and a hemacytometer; acridine orange and ethidium bromide were used to stain live and dead cells respectively.
(§3) Four samples of approximately 1.7×10^6 cells then were placed in polystyrene tubes. To each tube was added one of the following solutions (1 mL): FDA (1 uM) BCECF-AM (1 uM), VBDB (0.8 uM), or VBDB (8.0 uM). The dye solutions were prepared by diluting a stock solution of each dye (1-8 mM in DMSO) into blood cell diluent. The tubes were kept at room temperature for 30 minutes. The samples were washed three times and resuspended in blood cell diluent (1 mL).
(§4) A bandpass 530/30 emission filter was used for both FDA and BCECF-AM, while a bandpass 660/20 emission filter was used for VBDB. Data from 10,000 events were acquired from each of these samples immediately after staining, one hour after staining, and two hours after staining.
(§5) Referring to FIG. 2, VBDB, BCECF-AM and FDA were compared as vital dyes by staining lysed whole blood and examining the fluorescence by flow cytometry. […] Four samples of cells were incubated with BCECF AM (1 uM), FDA (1 uM) and VBDB (0.8 uM, 8.0 uM). The cells were analyzed immediately after staining (t=0), after one hour (t=1) and after two hours (t=2).
(§6) The data in FIG. 2 also was used to quantitate the "live" cells and the "dead" cells. […] It was assumed the live cells were those cells which retained the dye (the right peak) and that dead cells were those cells whose membranes had become leaky (the left peak). By setting the gate to the immediate left of the main peak, the "dead" cells to the left of the gate were counted.

[5] = test system: human white blood cells; test: as above; format: cell-based
Experimental: as §2, §3, §4, §5, §6

[6] = Stability in water; conditions: pH 7
[7] = Membrane permeability of diacetates; conditions: diacetate esters
[8] = pH 7
[9] = not told

In the case of `CCCC(=O)Oc1ccc2c3c(ccc2c1)C1(OS(=O)(=O)c2ccccc21)c1ccc2cc(OC(=O)CCC)ccc2c1O3` [Compound 14, Vita Blue dibutyrate], the “Abs Max” value ([1]; pH 7.2) is reported as 480 nm, the “ε (extinction coefficient)” value [1] is reported as 5900 M⁻¹ cm⁻¹ and the “ε (extinction coefficient)” value ([1]; listed as dibutyrate derivative of compound 9) is reported as 5900 M⁻¹ cm⁻¹. For the same molecule, the excitation maximum [2] was 480 nm, the “EM Max” value ([2]; pH 7.2) was 552 nm and the “Quantum Yield” value ([2]; pH 7.2) was 0.03. For the same molecule, the “EM Max” value ([2]; pH 7.2, listed as dibutyrate derivative of compound 9) was 550 nm, the esterase substrate [3] was “good substrate” and the specific activity ([3]; pH 8.0) was 2.5 (ug substrate) (min)^-1 (mg enzyme)^-1. It also gave a percentage of dead (leaky) cells at 0 h, 0.8 µM ([4]; 0.8 uM, t=0) of 14%, a percentage of dead (leaky) cells at 1 h, 0.8 µM ([4]; 0.8 uM, t=1 h) of 18% and a percentage of dead (leaky) cells at 2 h, 0.8 µM ([4]; 0.8 uM, t=2 h) of 20%. It also gave a percentage of dead (leaky) cells at 8 µM ([4]; 8 uM, second value, printed t=2) of 17%, a percentage of dead (leaky) cells at 0 h, 8 µM ([4]; 8 uM, t=0) of 12% and a percentage of dead (leaky) cells at 2 h, 8 µM ([4]; 8 uM, t=2 h) of 22%. For the same molecule, the “retention of initial fluorescence by stained cells over time” value ([5]; 0.8 uM dye) was “maintained their initial fluorescence”, the “coefficient of variation (CV) in the fluorescence histogram” value (“coefficient of variation (CV)” for short) ([5]; 0.8 uM, t=0) was 39% and the “coefficient of variation (CV)” value ([5]; 0.8 uM, t=1 h) was 43%. For the same molecule, the “coefficient of variation (CV)” value ([5]; 0.8 uM, t=2 h) was 46%, the “retention of initial fluorescence by stained cells over time” value ([5]; 8 uM dye, after one hour) was “actually increased their fluorescence slightly after one hour” and the “coefficient of variation (CV)” value ([5]; 8 uM, t=0) was 30%. For the same molecule, the “coefficient of variation (CV)” value ([5]; 8 uM, t=1 h) was 35%, the “coefficient of variation (CV)” value ([5]; 8 uM, t=2 h) was 34% and the “number of leaky cells, comparison of BCECF and VBDB” value ([5]; after two hours, higher VBDB concentration) was “the same number of "leaky" cells after two hours”. For the same molecule, the “deleterious effect on cells” value ([5]; higher concentration (8 uM)) was “did not seem to be deleterious to the cells” and the stability in water [6] was “relatively stable in water at pH 7”.

For `CC(=O)Oc1ccc2c3c(ccc2c1)C1(OS(=O)(=O)c2ccccc21)c1ccc2cc(OC(C)=O)ccc2c1O3` [Diacetate ester of compound 9, Vita Blue diacetate], the esterase substrate [3] was “esterase substrates” and the membrane permeability [7] was “neither diacetates were membrane permeable”.

For “Sulfonefluorescein diacetate [Diacetate ester of compound 2]”, the esterase substrate [3] was “esterase substrates”, the stability in water [8] was “relatively stable in water at pH 7” and the membrane permeability [9] was “neither diacetates were membrane permeable”.

Source: patent US5066580A, “Xanthene dyes that emit to the red of fluorescein” (priority 1990, dated 1991)
